Test results: article PMC7126891 (Bioorganic & Medicinal Chemistry, 2013)
Where two headings read alike, the source gives them in different places.

What was measured:
SARS-CoV 3CL^pro [1] = target: T1, SARS-CoV 3CL^pro (Severe acute respiratory syndrome coronavirus, UniProt P0C6X7); format: biochemical
SARS-CoV 3CL^pro [2] = target: T1, SARS-CoV 3CL^pro
SARS-CoV 3CL^pro [3] = target: T1, SARS-CoV 3CL^pro; assay: biochemical; format: binding

| Compound | Cell-free trans-cleavage inhibition type (SARS-CoV 3CL^pro [1]) | SI (CC50/IC50) (SARS-CoV 3CL^pro [2]) | other results |
| --- | --- | --- | --- |
| Oc1cc(O)cc(Oc2c(O)cc(O)c3c2Oc2c(O)cc(O)cc2O3)c1 [Compound 3, eckol] | Competitive (8.2 ± 0.9) | <1 | fold higher activity than triphloretol A (2) (SARS-CoV 3CL^pro [1]): 20 fold |
| Oc1cc(O)c2oc3cc(O)c4oc5cc(O)cc(O)c5oc4c3oc2c1 [Compound 4, dioxinodehydroeckol] | – | >1.4 | – |
| Oc1cc(O)cc(Oc2c(Oc3c(O)cc(O)cc3O)cc(O)c3c2Oc2c(O)cc(O)cc2O3)c1 [Compound 5, 2-phloroeckol] | Competitive (24.0 ± 1.5) | >1.8 | fold increase of inhibitory activity versus 7-phloroeckol (6) (SARS-CoV 3CL^pro [1]): ~3 fold |
| Oc1cc(O)cc(Oc2c(O)cc(O)c3c2Oc2c(O)cc(Oc4c(O)cc(O)cc4O)cc2O3)c1 [Compound 6, 7-phloroeckol] | Competitive (19.3 ± 1.4) | >1.8 | – |
| Oc1cc(O)c(Oc2cc(O)cc(O)c2Oc2cc(O)cc(O)c2-c2c(O)cc(O)cc2O)c(O)c1 [Compound 7, fucodiphloroethol G] | Competitive (63.5 ± 7.1) | – | SI (CC50/IC50) (SARS-CoV 3CL^pro [2]; African green monkey): >1.1 |
| Oc1cc(O)cc(Oc2c(O)cc(O)c3c2Oc2c(O)cc(Oc4c(O)cc(Oc5c(O)cc(O)c6c5Oc5c(O)cc(O)cc5O6)cc4O)cc2O3)c1 [Compound 8, dieckol] | Competitive (2.4 ± 0.2) | >2.9 | kon (SARS-CoV 3CL^pro [3]; read-out: association rate constant kon): 7.35e+07 M⁻¹ s⁻¹; koff (SARS-CoV 3CL^pro [3]; read-out: dissociation rate constant koff): 0.000843 s⁻¹ |
| Oc1cc(O)cc(Oc2c(O)cc(O)c3c2Oc2c(O)cc4oc5c(Oc6cc(O)cc(O)c6)c(O)cc(O)c5c4c2O3)c1 [Compound 9, phlorofucofuroeckol A] | Competitive (10.6 ± 1.0) | >1.1 | – |
